According to paper PMC6813931, “Choline Kinase Emerges as a Promising Drug Target in Gram-Positive Bacteria” (Frontiers in Microbiology, 2019):

What was measured:
[1] = target: T1, sChoK (S. pneumoniae isoform of choline kinase, LicA) (Streptococcus pneumoniae, UniProt Q8DPI4); assay: sChoK activity inhibition (authors' earlier work); type: biochemical; details: authors' own earlier result (Zimmerman and Ibrahim 2017), restated here; cited from earlier work
T1 construct: gene pck; ChoK activity measured in cell extracts
T1 sequence (Q8DPI4 1-289): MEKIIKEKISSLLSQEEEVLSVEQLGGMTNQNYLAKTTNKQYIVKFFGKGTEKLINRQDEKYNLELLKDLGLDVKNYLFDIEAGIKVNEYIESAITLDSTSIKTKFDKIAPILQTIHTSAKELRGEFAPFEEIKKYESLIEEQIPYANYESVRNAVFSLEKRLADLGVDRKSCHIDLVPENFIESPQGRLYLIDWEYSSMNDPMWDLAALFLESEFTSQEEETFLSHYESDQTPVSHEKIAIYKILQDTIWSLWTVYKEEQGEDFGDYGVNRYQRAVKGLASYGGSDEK
From the text: sChoK activity inhibition (authors' earlier work) on sChoK (S. pneumoniae isoform of choline kinase, LicA)

[2] = target: T1, sChoK (S. pneumoniae isoform of choline kinase, LicA); assay: colorimetric ChoK activity assay in cell extracts; type: biochemical
From the text: colorimetric ChoK activity assay in cell extracts on sChoK (S. pneumoniae isoform of choline kinase, LicA)

SMILES	IC50 [1]	IC50 [2]
C[N+]1(C)CCOC(O)(c2ccc(-c3ccc(C4(O)C[N+](C)(C)CCO4)cc3)cc2)C1 (stereo not drawn) [HC-3]	> 2700 µM	
CN(C)c1cc[n+](Cc2ccc(CCCCc3ccc(C[n+]4ccc(N(C)C)cc4)cc3)cc2)cc1 [MN58b]		197 µM
CN(c1ccc(Cl)cc1)c1cc[n+](Cc2ccc(-c3ccc(C[n+]4ccc(N(C)c5ccc(Cl)cc5)c5ccccc54)cc3)cc2)c2ccccc12 [RSM-932A]		0.5 µM
